Test results: patent publication US11661426B2, “Imidazole-containing inhibitors of ALK2 kinase” (BioCryst Pharmaceuticals, Inc., priority 2017, dated 2023)
pIC50: −log10 of the molar value.

Biological target: ALK2 (Homo sapiens (Human), UniProt Q04771)
Assay: ALK2 inhibition, LanthaScreen Eu Kinase Binding Assay (ThermoFisher Scientific / Life Technologies)
Details: read-out: Measured Ki (IC50) Value for Compounds: IC50
Procedure: Biochemical assays to measure the inhibitory effects of the compounds were performed by ThermoFisher Scientific (Life Technologies). ALK2 inhibition was tested using LanthaScreen™ Eu Kinase Binding Assay screening protocol.

ALK2, sequence (Q04771 21-509): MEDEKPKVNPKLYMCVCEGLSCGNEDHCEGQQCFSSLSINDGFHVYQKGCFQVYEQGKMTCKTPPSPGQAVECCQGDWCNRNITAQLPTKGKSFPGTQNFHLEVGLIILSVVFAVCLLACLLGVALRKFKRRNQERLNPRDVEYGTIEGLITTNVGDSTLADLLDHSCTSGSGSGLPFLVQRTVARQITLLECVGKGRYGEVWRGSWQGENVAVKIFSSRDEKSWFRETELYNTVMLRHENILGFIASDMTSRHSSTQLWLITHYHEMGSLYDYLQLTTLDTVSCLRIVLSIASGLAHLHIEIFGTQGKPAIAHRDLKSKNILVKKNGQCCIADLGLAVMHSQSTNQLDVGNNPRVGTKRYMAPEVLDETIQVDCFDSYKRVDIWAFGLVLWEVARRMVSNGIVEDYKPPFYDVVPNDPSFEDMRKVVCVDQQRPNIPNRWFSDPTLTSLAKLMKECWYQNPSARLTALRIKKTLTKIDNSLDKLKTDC

Compound | pIC50
COc1cc(-n2cnc(Nc3nc(N4CCC[C@H]4CO)nc4cc(C(F)(F)F)ccc34)c2)cc(OC)c1OC [Compound 284c, (S)-(1-(7-(trifluoromethyl)-4-((1-(3,4,5-trimethoxyphenyl)-1H-imidazol-4-yl)amino)quinazolin-2-yl)pyrrolidin-2-yl)methanol] | > 7.00
COc1cc(-n2cnc(Nc3nc(N4CCC[C@H]4C(N)=O)nc4cc(C(F)(F)F)ccc34)c2)cc(OC)c1OC [Compound 285a, (S)-1-(7-(trifluoromethyl)-4-((1-(3,4,5-trimethoxyphenyl)-1H-imidazol-4-yl)amino)quinazolin-2-yl)pyrrolidine-2-carboxamide] | > 7.00
COc1cc(-n2cnc(Nc3nc(N4CCC[C@H]4CO)c4ccc(C(F)(F)F)cc4n3)c2)cc(OC)c1OC [Compound 286b, (S)-(1-(7-(trifluoromethyl)-2-((1-(3,4,5-trimethoxyphenyl)-1H-imidazol-4-yl)amino)quinazolin-4-yl)pyrrolidin-2-yl)methanol] | > 7.00
COc1cc(-n2cnc(Nc3nc(N4CCC[C@@H]4C(N)=O)nc4cc(C(F)(F)F)ccc34)c2)cc(OC)c1OC [Compound 287a, (R)-1-(7-(trifluoromethyl)-4-((1-(3,4,5-trimethoxyphenyl)-1H-imidazol-4-yl)amino)quinazolin-2-yl)pyrrolidine-2-carboxamide] | > 7.00
COc1cc(-n2cnc(Nc3nc(N4CCC[C@@H]4C(N)=O)nc4cc(F)ccc34)c2)cc(OC)c1OC [Compound 288a, (R)-1-(7-fluoro-4-((1-(3,4,5-trimethoxyphenyl)-1H-imidazol-4-yl)amino)quinazolin-2-yl)pyrrolidine-2-carboxamide] | > 7.00
COc1cc(-n2cnc(Nc3nc(N4CCC[C@H]4CO)nc4c3CCC4)c2)cc(OC)c1OC [Compound 289b, (S)-(1-(4-((1-(3,4,5-trimethoxyphenyl)-1H-imidazol-4-yl)amino)-6,7-dihydro-5H-cyclopenta[d]pyrimidin-2-yl)pyrrolidin-2-yl)methanol] | > 7.00
COc1cc(-n2cnc(Nc3nc(N4CCC[C@@H]4CO)nc4c3CCC4)c2)cc(OC)c1OC [Compound 290a, (R)-(1-(4-((1-(3,4,5-trimethoxyphenyl)-1H-imidazol-4-yl)amino)-6,7-dihydro-5H-cyclopenta[d]pyrimidin-2-yl)pyrrolidin-2-yl)methanol] | > 7.00
COc1cc(-n2cnc(Nc3nc(N4CCC[C@@H]4C(N)=O)nc4c3CCC4)c2)cc(OC)c1OC [Compound 291a, (R)-1-(4-((1-(3,4,5-trimethoxyphenyl)-1H-imidazol-4-yl)amino)-6,7-dihydro-5H-cyclopenta[d]pyrimidin-2-yl)pyrrolidine-2-carboxamide] | > 7.00
COc1cc(-n2cnc(Nc3nc(N4CCC[C@H]4C(N)=O)nc4c3CCC4)c2)cc(OC)c1OC [Compound 292a, (S)-1-(4-((1-(3,4,5-trimethoxyphenyl)-1H-imidazol-4-yl)amino)-6,7-dihydro-5H-cyclopenta[d]pyrimidin-2-yl)pyrrolidine-2-carboxamide] | > 7.00
COc1cc(-n2cnc(Nc3nc(N4CCC[C@@H]4CO)nc4cc(C(F)(F)F)ccc34)c2)cc(OC)c1OC [Compound 293a, (R)-(1-(7-(trifluoromethyl)-4-((1-(3,4,5-trimethoxyphenyl)-1H-imidazol-4-yl)amino)quinazolin-2-yl)pyrrolidin-2-yl)methanol] | > 7.00
COc1cc(-n2cnc(Nc3nc(N4CCC[C@@H]4CO)nc4ccoc34)c2)cc(OC)c1OC [Compound 294a, (R)-(1-(4-((1-(3,4,5-trimethoxyphenyl)-1H-imidazol-4-yl)amino)furo[3,2-d]pyrimidin-2-yl)pyrrolidin-2-yl)methanol] | > 7.00
COc1cc(-n2cnc(Nc3nc(N4CCC[C@@H]4CO)nc4c3CCCC4)c2)cc(OC)c1OC [Compound 295b, (R)-(1-(4-((1-(3,4,5-trimethoxyphenyl)-1H-imidazol-4-yl)amino)-5,6,7,8-tetrahydroquinazolin-2-yl)pyrrolidin-2-yl)methanol] | > 7.00
COc1cc(-n2cnc(Nc3nc(N4CCC[C@H]4CO)nc4c3CCCC4)c2)cc(OC)c1OC [Compound 296a, (S)-(1-(4-((1-(3,4,5-trimethoxyphenyl)-1H-imidazol-4-yl)amino)-5,6,7,8-tetrahydroquinazolin-2-yl)pyrrolidin-2-yl)methanol] | > 7.00
COc1cc(-n2cnc(Nc3nc(N4CCC[C@@H]4CO)nc4sccc34)c2)cc(OC)c1OC [Compound 297a, (R)-(1-(4-((1-(3,4,5-trimethoxyphenyl)-1H-imidazol-4-yl)amino)thieno[2,3-d]pyrimidin-2-yl)pyrrolidin-2-yl)methanol] | > 7.00
COc1cc(-n2cnc(Nc3nc(N4CCC[C@@H]4C(N)=O)nc4sccc34)c2)cc(OC)c1OC [Compound 298a, (R)-1-(4-((1-(3,4,5-trimethoxyphenyl)-1H-imidazol-4-yl)amino)thieno[2,3-d]pyrimidin-2-yl)pyrrolidine-2-carboxamide] | > 7.00
COc1cc(-n2cnc(Nc3nc(N4CCC[C@@H]4C(N)=O)nc4ccsc34)c2)cc(OC)c1OC [Compound 299a, (R)-1-(4-((1-(3,4,5-trimethoxyphenyl)-1H-imidazol-4-yl)amino)thieno[3,2-d]pyrimidin-2-yl)pyrrolidine-2-carboxamide] | > 7.00

Compound | pIC50
COc1cc(-n2cnc(Nc3nc(N4CCC[C@@H]4C(N)=O)nc4ccoc34)c2)cc(OC)c1OC [Compound 300a, (R)-1-(4-((1-(3,4,5-trimethoxyphenyl)-1H-imidazol-4-yl)amino)furo[3,2-d]pyrimidin-2-yl)pyrrolidine-2-carboxamide] | > 7.00
COc1cc(-n2cnc(Nc3nc(N4CCC[C@@H]4CO)c4occc4n3)c2)cc(OC)c1OC [Compound 301b, (R)-(1-(2-((1-(3,4,5-trimethoxyphenyl)-1H-imidazol-4-yl)amino)furo[3,2-d]pyrimidin-4-yl)pyrrolidin-2-yl)methanol] | > 7.00
COc1cc(-n2cnc(Nc3nc(N4CCC[C@H]4C(N)=O)nc4c3CCCC4)c2)cc(OC)c1OC [Compound 302a, (S)-1-(4-((1-(3,4,5-trimethoxyphenyl)-1H-imidazol-4-yl)amino)-5,6,7,8-tetrahydroquinazolin-2-yl)pyrrolidine-2-carboxamide] | > 7.00
COc1cc(-n2cnc(Nc3nc(N4CCC[C@@H]4CO)nc4ccsc34)c2)cc(OC)c1OC [Compound 303a, (R)-(1-(4-((1-(3,4,5-trimethoxyphenyl)-1H-imidazol-4-yl)amino)thieno[3,2-d]pyrimidin-2-yl)pyrrolidin-2-yl)methanol] | > 7.00
COc1cc(-n2cnc(Nc3nc(N4CCC[C@@H]4CO)nc4ccccc34)c2)cc(OC)c1OC [Compound 304a, (R)-(1-(4-((1-(3,4,5-trimethoxyphenyl)-1H-imidazol-4-yl)amino)quinazolin-2-yl)pyrrolidin-2-yl)methanol] | > 7.00
COc1cc(-n2cnc(Nc3nc(N4CCC[C@@H]4C(N)=O)nc4ccccc34)c2)cc(OC)c1OC [Compound 305a, (R)-1-(4-((1-(3,4,5-trimethoxyphenyl)-1H-imidazol-4-yl)amino)quinazolin-2-yl)pyrrolidine-2-carboxamide] | > 7.00
COc1cc(-n2cnc(Nc3nc(N4CCC[C@@H]4CO)nc4cc(N5CCC[C@@H]5CO)ccc34)c2)cc(OC)c1OC [Compound 306a, ((2R,2′R)-1,1′-(4-((1-(3,4,5-trimethoxyphenyl)-1H-imidazol-4-yl)amino)quinazoline-2,7-diyl)bis(pyrrolidine-2,1-diyl))dimethanol] | > 7.00
COc1cc(-n2cnc(Nc3nc(N4CCC[C@@H]4CO)c4cc[nH]c4n3)c2)cc(OC)c1OC [Compound 307c, (R)-(1-(2-((1-(3,4,5-trimethoxyphenyl)-1H-imidazol-4-yl)amino)-7H-pyrrolo[2,3-d]pyrimidin-4-yl)pyrrolidin-2-yl)methanol] | > 7.00
COc1cc(-n2cnc(Nc3nc(N4CCC[C@@H]4CO)nc4[nH]ccc34)c2)cc(OC)c1OC [Compound 308b, (R)-(1-(4-((1-(3,4,5-trimethoxyphenyl)-1H-imidazol-4-yl)amino)-7H-pyrrolo[2,3-d]pyrimidin-2-yl)pyrrolidin-2-yl)methanol] | > 7.00
COc1cc(-n2cnc(Nc3nc(N4CCC[C@@H]4CO)c4ccsc4n3)c2)cc(OC)c1OC [Compound 309b, (R)-(1-(2-((1-(3,4,5-trimethoxyphenyl)-1H-imidazol-4-yl)amino)thieno[2,3-d]pyrimidin-4-yl)pyrrolidin-2-yl)methanol] | > 7.00
COc1cc(-n2cnc(Nc3nc(N4CCC[C@@H]4CO)c4sccc4n3)c2)cc(OC)c1OC [Compound 310b, (R)-(1-(2-((1-(3,4,5-trimethoxyphenyl)-1H-imidazol-4-yl)amino)thieno[3,2-d]pyrimidin-4-yl)pyrrolidin-2-yl)methanol] | > 7.00
COc1cc(-n2cnc(Nc3nc(N4CCC[C@H]4C(N)=O)nc4c3COC4)c2)cc(OC)c1OC [Compound 311a, (S)-1-(4-((1-(3,4,5-trimethoxyphenyl)-1H-imidazol-4-yl)amino)-5,7-dihydrofuro[3,4-d]pyrimidin-2-yl)pyrrolidine-2-carboxamide] | > 7.00
COc1cc(-n2cnc(Nc3nc(N4CCC[C@@H]4C(N)=O)nc4c3COC4)c2)cc(OC)c1OC [Compound 312a, (R)-1-(4-((1-(3,4,5-trimethoxyphenyl)-1H-imidazol-4-yl)amino)-5,7-dihydrofuro[3,4-d]pyrimidin-2-yl)pyrrolidine-2-carboxamide] | > 7.00
COc1cc(-n2cnc(Nc3nc(N4CCC[C@@H]4C(N)=O)nc4c3CCCC4)c2)cc(OC)c1OC [Compound 313a, (R)-1-(4-((1-(3,4,5-trimethoxyphenyl)-1H-imidazol-4-yl)amino)-5,6,7,8-tetrahydroquinazolin-2-yl)pyrrolidine-2-carboxamide] | > 7.00
COc1cc(-n2cnc(Nc3nc(N4CCC[C@@H]4C(N)=O)nc4[nH]ccc34)c2)cc(OC)c1OC [Compound 314b, (R)-1-(4-((1-(3,4,5-trimethoxyphenyl)-1H-imidazol-4-yl)amino)-7H-pyrrolo[2,3-d]pyrimidin-2-yl)pyrrolidine-2-carboxamide] | > 7.00
